“Also recorded” adds a separate entry of the source.
Assays:
[1] = system: β-arrestin-dependent ERK1/2 activation downstream of β2AR; test: Carvedilol-stimulated ERK1/2 phosphorylation in β2AR HEK293 cells; assay type: cell-based; details: 30 μM; carvedilol 10 μM, 5 min
Description: To evaluate the effect of small-molecule modulators on β-arrestin-dependent ERK1/2 signalling, HEK293 cells stably expressing β2AR were serum-starved for 6 h (refs. [34],[75]), then pretreated with β-arrestin modulators (30 μM) or vehicle for 20 min at 37 °C. Cells were subsequently stimulated with carvedilol (10 μM, 5 min), a β-arrestin-biased agonist known to promote ERK1/2 phosphorylation via β-arrestin scaffolding of RAF–MEK–ERK signalling components. Cells were lysed, sonicated (15 s), and centrifuged at 14,000g for 15 min at 4 °C. Equal amounts of total protein were resolved by SDS–PAGE on 4–20% Tris-Glycine gels (Thermo Fisher Scientific), transferred to nitrocellulose or PVDF membranes, and immunoblotted with anti–phospho-ERK1/2 (1:2,000; Cell Signaling) and total ERK1/2 (1:10,000; Millipore Sigma). HRP-conjugated secondary antibodies were used for detection. Protein bands were visualized using Pierce SuperSignal West Pico ECL substrate (Thermo Fisher Scientific), imaged on a ChemiDoc XRS system (Bio-Rad) and quantified by densitometry using ImageLab (Bio-Rad). Data were analysed using GraphPad Prism.

[2] = system: M2R–Gi; test: TRUPATH BRET2 Gα–Gβγ dissociation, M2R–Gi; assay type: cell-based, human; details: 50 μM, 15 min; ACh; βarr1/2 KO cells
Description: TRUPATH assays[73] were performed in HEK293 βARR1/2-knockout cells transiently transfected using FuGENE4K with a total of 4 μg per 15 cm dish plasmid DNA, including pcDNA3.1 constructs encoding human GPCRs (β2AR, AT1R, M2R or NTSR1), Gα–RLuc8, Gβ3 and Gγ9–GFP2 at a 1:1:1:1 ratio. TRUPATH components were obtained from B. Roth via Addgene (1000000163). Twenty-four hours after transfection, cells were replated into poly-D-lysine-coated 96-well white, clear-bottom plates at 20,000–30,000 cells per well in phenol red-free DMEM supplemented with 2% FBS. BRET signals were acquired 48 h after transfection. On the day of the assay, cells were washed and incubated in HBSS containing 20 mM HEPES (pH 7.4). Modulators were applied at 50 μM for 15 min, followed by addition of Prolume Purple substrate (Nanolight Technologies). Cells were then stimulated with increasing concentrations of agonist (angiotensin II, neurotensin, isoproterenol or acetylcholine). BRET2 was recorded in kinetic mode for 30 min using a CLARIOstar Plus plate reader (480 nm/510 nm), and peak signals were used for quantification. ΔNet BRET ratios were calculated by subtracting the BRET ratio of the vehicle-treated control from each condition, agonist alone or agonist plus modulator. […]

[3] = system: D2R–Gi; test: TRUPATH BRET2 Gα–Gβγ dissociation, D2R–Gi; assay type: cell-based; details: 50 μM; quinpirole; βarr1/2 KO cells

Compound | effect on β-arrestin-dependent ERK1/2 activation [1] | mean fractional decrease vs DMSO in maximal Gα–Gβγ dissociation, M2R [2] | mean fractional decrease vs DMSO in maximal Gα–Gβγ dissociation, D2R [3]
C=C1C(=O)[C@]23[C@H](O)[C@H]1CC[C@H]2[C@@]12CO[C@]3(O)[C@@H](O)[C@@H]1C(C)(C)CC[C@@H]2O [Cmpd-5, (1S,4aR,5S,6S,6aR,9S,11aS,11bS,14R)-1,5,6,14-tetrahydroxy−4,4-dimethyl-8-methylenedecahydro-1H-6,11b-(epoxymethano)-6a,9-methanocyclohepta[a]naphthalen-7(8H)-one] | significantly attenuated; also recorded: attenuate | – | –
C=C1C(=O)C2=CC1CCC(=O)C1(C)CCC(OCC)C(C)(C)C1CC2O (stereo not shown) [Cmpd-46, (Z)-3-ethoxy-6-hydroxy-4,4,13a-trimethyl-9-methylene-1,2,3,4,4a,5,6,9,10,11,12,13a-dodecahydro-7,10-(metheno)benzo[11]annulene-8,13-dione] | significantly attenuated; also recorded: attenuate | −0.32 | −0.18
C=C1C(=O)OC2CC3(C)OC3CCC(C)=CC(OC(C)=O)C12 (stereo not shown) [Cmpd-64, (Z)-4,10a-dimethyl-7-methylene-8-oxo-1a,2,3,6,6a,7,8,9a,10,10a decahydrooxireno[2’,3’:8,9]cyclodeca[1,2-b]furan-6-yl acetate] | significantly attenuated; also recorded: attenuate | −0.38 | −0.27

From publication PMC13489962, “Small-molecule modulation of β-arrestins” (Nature, 2026)
